These results are taken from US8299070B2, “Indole compounds and pharmaceutical use thereof” (Japan Tobacco Inc., priority 2009, dated 2012).

The structures appear in SMILES notation.

The assay addresses T1, hITK enzyme (FLAG-tagged full-length hITK) (Homo sapiens, UniProt Q08881).
T1 construct: strongly expressing FLAG-tagged full-length hITK in Sf9 cells; FLAG; made in house; host or cells: Sf9 insect cells (ITK); Escherichia coli (GST-SLP76 substrate)
T1 sequence (Q08881 1-620): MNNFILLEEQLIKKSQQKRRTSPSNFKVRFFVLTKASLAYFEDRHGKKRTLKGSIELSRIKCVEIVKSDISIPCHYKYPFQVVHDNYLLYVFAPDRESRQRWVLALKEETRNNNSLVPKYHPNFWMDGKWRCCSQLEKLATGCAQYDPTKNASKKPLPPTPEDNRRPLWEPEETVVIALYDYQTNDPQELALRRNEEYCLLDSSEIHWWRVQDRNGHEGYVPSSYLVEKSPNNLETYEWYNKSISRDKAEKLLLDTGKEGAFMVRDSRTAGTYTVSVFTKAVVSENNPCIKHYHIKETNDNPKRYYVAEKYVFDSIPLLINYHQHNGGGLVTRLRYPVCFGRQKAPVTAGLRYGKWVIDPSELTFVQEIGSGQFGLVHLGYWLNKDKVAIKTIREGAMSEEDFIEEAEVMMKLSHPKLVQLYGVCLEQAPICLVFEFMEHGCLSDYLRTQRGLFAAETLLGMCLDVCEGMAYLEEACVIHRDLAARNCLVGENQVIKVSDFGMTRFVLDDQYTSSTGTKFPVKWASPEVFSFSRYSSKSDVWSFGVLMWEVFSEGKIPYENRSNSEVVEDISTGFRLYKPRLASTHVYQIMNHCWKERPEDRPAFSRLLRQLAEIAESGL
In words: ITK inhibitory activity (HTRF kinase assay, biotinylated GST-SLP76 substrate). It counts as biochemical. As to conditions: IC50 calculated from the 2 test compound concentrations sandwiching 50% ITK inhibitory rate. In short, it runs like this:
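Sf9-expressed hITK (50 ng/mL enzyme solution) reacted 10 min at RT in MOPS pH 7.0, 10 mmol/L MgCl2, 1 mmol/L DTT with E. coli SLP76 aa95–175 substrate; substrate solution held 100 µmol/L ATP (6 µmol/L for selected compounds). HTRF 665/620 ratio, blank-corrected; IC50 interpolated between two concentrations bracketing 50% inhibition.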
In the case of `CN(C(=O)CN1CCCS1(=O)=O)c1ccc2cc(-c3n[nH]c4c3CCC(C)(C)C4)[nH]c2c1` [Example 138], the IC50 is 3 nM.
Then `CN(C(=O)[C@@H]1CCCO1)c1ccc2cc(-c3n[nH]c4c3CCC(C)(C)C4)[nH]c2c1` [Example 139], with 2 nM; and `CN(C(=O)[C@H]1CCCO1)c1ccc2cc(-c3n[nH]c4c3CCC(C)(C)C4)[nH]c2c1` [Example 140], with 2 nM.
Then `CN(C(=O)CCN1CCCCC1=O)c1ccc2cc(-c3n[nH]c4c3CCC(C)(C)C4)[nH]c2c1` [Example 141], with 10 nM; and `CN(C(=O)CC1CCC(=O)N1C)c1ccc2cc(-c3n[nH]c4c3CCC(C)(C)C4)[nH]c2c1` (centres unmarked) [Example 142], with 5 nM; and `CN(C(=O)CC1CCC(=O)N1)c1ccc2cc(-c3n[nH]c4c3CCC(C)(C)C4)[nH]c2c1` (centres unmarked) [Example 143], with 3 nM.
Regarding `CN(C(=O)CCN1CCCC1=O)c1ccc2cc(-c3n[nH]c4c3CCC(C)(C)C4)[nH]c2c1` [Example 144], the IC50 was 9 nM.
Then `CC1COCCN1CC(=O)N(C)c1ccc2cc(-c3n[nH]c4c3CCC(C)(C)C4)[nH]c2c1` (centres unmarked) [Example 145], with 3 nM.
Regarding `CC1COCCN1C(C)C(=O)N(C)c1ccc2cc(-c3n[nH]c4c3CCC(C)(C)C4)[nH]c2c1` (centres unmarked) [Example 146], the IC50 was 11 nM.
With `CC(C(=O)N(C)c1ccc2cc(-c3n[nH]c4c3CCC(C)(C)C4)[nH]c2c1)N1CCOCC1=O` (centres unmarked) [Example 147], the IC50 was 8 nM.
In the case of `CN(C(=O)[C@@H]1CCCN1C)c1ccc2cc(-c3n[nH]c4c3CCC(C)(C)C4)[nH]c2c1` [Example 148] it was 19 nM; in that of `CN(C(=O)[C@H]1CCCN1C)c1ccc2cc(-c3n[nH]c4c3CCC(C)(C)C4)[nH]c2c1` [Example 149], 10 nM.
Take `CN(C(=O)[C@H]1CCC(=O)N1C)c1ccc2cc(-c3n[nH]c4c3CCC(C)(C)C4)[nH]c2c1` [Example 150]: the IC50 is 2 nM.
As to `CN(C(=O)[C@@H]1CCC(=O)N1C)c1ccc2cc(-c3n[nH]c4c3CCC(C)(C)C4)[nH]c2c1` [Example 151], the IC50 was 3 nM.
Take `CC1COCC(=O)N1C(C)C(=O)N(C)c1ccc2cc(-c3n[nH]c4c3CCC(C)(C)C4)[nH]c2c1` (centres unmarked) [Example 152]: the concentration for half-maximal inhibition (IC50) was 14 nM.
Consider `CC1COCC(=O)N1C(C)C(=O)N(C)c1ccc2cc(-c3n[nH]c4c3CCC(C)(C)C4)[nH]c2c1` (centres unmarked) [Example 153], for which the IC50 is 5 nM.
As to `CN(C(=O)CN1CCOC1=O)c1ccc2cc(-c3n[nH]c4c3CCC(C)(C)C4)[nH]c2c1` [Example 154], the IC50 was 2 nM.
For `CO[C@H]1CN(CC(=O)N(C)c2ccc3cc(-c4n[nH]c5c4CCC(C)(C)C5)[nH]c3c2)C[C@H]1OC` [Example 155], the 50% inhibitory concentration (IC50) was 9 nM.
As for `CN(C(=O)Cn1ccccc1=O)c1ccc2cc(-c3n[nH]c4c3CCC(C)(C)C4)[nH]c2c1` [Example 156], the IC50 was less than 1 nM.
On to `CN(C(=O)Cn1cccn1)c1ccc2cc(-c3n[nH]c4c3CCC(C)(C)C4)[nH]c2c1` [Example 157], for which the IC50 is 1 nM.
Then `CN(C(=O)C(CO)OC1CCCC1)c1ccc2cc(-c3n[nH]c4c3CCC(C)(C)C4)[nH]c2c1` (centres unmarked) [Example 158], with 5 nM; and `CC(C)OC(CO)C(=O)N(C)c1ccc2cc(-c3n[nH]c4c3CCC(C)(C)C4)[nH]c2c1` (centres unmarked) [Example 159], with 7 nM.
As for `CN(C(=O)CN1C(=O)CC[C@H]1CO)c1ccc2cc(-c3n[nH]c4c3CCC(C)(C)C4)[nH]c2c1` [Example 160], the IC50 is 1 nM.
Then `CN(C(=O)C(C)(C)N1CCOCC1)c1ccc2cc(-c3n[nH]c4c3CCC(C)(C)C4)[nH]c2c1` [Example 161], with 22 nM; and `CC1CCN(CC(=O)N(C)c2ccc3cc(-c4n[nH]c5c4CCC(C)(C)C5)[nH]c3c2)C1=O` (centres unmarked) [Example 162], with 1 nM.
With `CN(C(=O)CN1CC(C)(C)CC1=O)c1ccc2cc(-c3n[nH]c4c3CCC(C)(C)C4)[nH]c2c1` [Example 163], the IC50 was 1 nM.
In the case of `CN(C(=O)CN1CC(O)CC1=O)c1ccc2cc(-c3n[nH]c4c3CCC(C)(C)C4)[nH]c2c1` (centres unmarked) [Example 164], the IC50 is 3 nM.
In the case of `CC(=O)N1CCC[C@H]1C(=O)N(C)c1ccc2cc(-c3n[nH]c4c3CCC(C)(C)C4)[nH]c2c1` [Example 165] it was 5 nM; in that of `CC(=O)N1CCC[C@@H]1C(=O)N(C)c1ccc2cc(-c3n[nH]c4c3CCC(C)(C)C4)[nH]c2c1` [Example 166], 1 nM.
Then `CC1OCCN(CC(=O)N(C)c2ccc3cc(-c4n[nH]c5c4CCC(C)(C)C5)[nH]c3c2)C1=O` (centres unmarked) [Example 167], with 1 nM.
Take `CO[C@H](C)C(=O)N(C)c1ccc2cc(-c3n[nH]c4c3CCC(C)(C)C4)[nH]c2c1` [Example 168]: the IC50 was 3 nM.
Turning to `CO[C@@H](C)C(=O)N(C)c1ccc2cc(-c3n[nH]c4c3CCC(C)(C)C4)[nH]c2c1` [Example 169], the IC50 is 3 nM.
In the case of `CN(C(=O)CN1CC[C@@H](O)CC1=O)c1ccc2cc(-c3n[nH]c4c3CCC(C)(C)C4)[nH]c2c1` [Example 170] it was less than 1 nM; in that of `C[C@@H]1COCC(=O)N1CC(=O)N(C)c1ccc2cc(-c3n[nH]c4c3CCC(C)(C)C4)[nH]c2c1` [Example 171], 1 nM.
Then `C[C@H]1COCC(=O)N1CC(=O)N(C)c1ccc2cc(-c3n[nH]c4c3CCC(C)(C)C4)[nH]c2c1` [Example 172], with 2 nM; and `CC(C)C(C(=O)N(C)c1ccc2cc(-c3n[nH]c4c3CCC(C)(C)C4)[nH]c2c1)N1CCOCC1` (centres unmarked) [Example 173], with 13 nM; and `CN(C(=O)CN1CCCC(C)(C)C1=O)c1ccc2cc(-c3n[nH]c4c3CCC(C)(C)C4)[nH]c2c1` [Example 174], with 2 nM.
For the molecule `CN(C(=O)CN1CC(C)(C)CCC1=O)c1ccc2cc(-c3n[nH]c4c3CCC(C)(C)C4)[nH]c2c1` [Example 175], the IC50 was 2 nM.
As for `COC1CCC(CC(=O)N(C)c2ccc3cc(-c4n[nH]c5c4CCC(C)(C)C5)[nH]c3c2)CC1` (centres unmarked) [Example 176], the IC50 is 7 nM.
In the case of `CN(C(=O)CN1C(=O)CC[C@@H]1CO)c1ccc2cc(-c3n[nH]c4c3CCC(C)(C)C4)[nH]c2c1` [Example 177] it was 2 nM; in that of `CN(CC(=O)N(C)c1ccc2cc(-c3n[nH]c4c3CCC(C)(C)C4)[nH]c2c1)C(=O)OCc1ccccc1` [Example 178], 4 nM; in that of `CN(CC(=O)N(C)c1ccc2cc(-c3n[nH]c4c3CCC(C)(C)C4)[nH]c2c1)C(=O)C(C)(C)C` [Example 179], 1 nM.
Take `COCC(=O)N(C)CC(=O)N(C)c1ccc2cc(-c3n[nH]c4c3CCC(C)(C)C4)[nH]c2c1` [Example 180]: the IC50 was less than 1 nM.
Then `C[C@@H]1CN(CC(=O)N(C)c2ccc3cc(-c4n[nH]c5c4CCC(C)(C)C5)[nH]c3c2)C(=O)CO1` [Example 182], with 2 nM.
Then `CN(C(=O)CN1CCC(C)(C)C1=O)c1ccc2cc(-c3n[nH]c4c3CCC(C)(C)C4)[nH]c2c1` [Example 183], with 1 nM; and `CN(C(=O)CN1CC(C)(C)OCC1=O)c1ccc2cc(-c3n[nH]c4c3CCC(C)(C)C4)[nH]c2c1` [Example 184], with 1 nM; and `CN(C(=O)CN1CCNC1=O)c1ccc2cc(-c3n[nH]c4c3CCC(C)(C)C4)[nH]c2c1` [Example 185], with 2 nM.

As a reminder, the IC50 is the concentration at which inhibition is half-maximal.
